The results in this text go back to PMC10349806 (Nature Communications, 2023).

For one data set, the target named is PfCRT^Dd2 (Plasmodium falciparum, UniProt Q9N623, A220S/I356T/K76T/M74I/N326S/N75E/Q271E/R371I). In words: Drug uptake assay, X. laevis oocytes expressing PfCRT^Dd2. The format is cell-based. The following applies: for PfCRTDd2 transport activity pH 6.0: 50 µM external drug, 1 h, independent samples (means in Fig 4c). On the procedure:
(§1) Oocytes were obtained as described previously. Briefly, adult (>2 years old) female X. laevis frogs (NASCO) were anesthetized in a cooled solution of ethyl 3-amino benzoate methanesulfonate (0.1%, w/v), followed by a surgical removal of parts of the ovary. The ovary lobes were carefully dissected and small pieces of oocytes were incubated in Ca^2+-free ND96 buffer (96 mM NaCl, 2 mM KCl, 1 mM MgCl2 buffered with 5 mM HEPES/NaOH, pH 7.5) supplemented with collagenase D (0.1%, w/v; Roche), BSA (0.5%, w/v), and 9 mm Na2HPO4 at 18 °C for 14-16 h while gentle shaking. After incubation, the oocytes were carefully washed several times with ND96 buffer (96 mM NaCl, 2 mM KCl, 1.8 mM CaCl2, 1 mM MgCl2 buffered with 5 mM HEPES/NaOH, pH 7.5) supplemented with 100 mg l^−1 gentamycin). Defolliculated and healthy-looking stage V-VI oocytes were manually selected for RNA microinjection. The RNA was generated as following: The codon-optimized sequences of PfCRT variants were cloned into the pSP64T expression vector. After vector linearization using the restriction endonucleases BamHI or SalI (New England Biolabs), transcription was performed using the in vitro SP6 mMessage mMachine Kit (Ambion)[34]. The obtained RNA was kept at −80 °C and diluted with nuclease-free water to a concentration of 0.6 μg μl^−1. Precision-bore glass capillary tubes (3.5-inch glass capillaries; Drummond Scientific Co.) were pulled on a vertical puller (P-87 Flaming/Brown micropipette puller, Sutter Instrument Co.), graduated, and placed on a microinjector (Nanoject II Auto-Nanoliter Injector, Drummond Scientific Co.). 50 nl of nuclease-free water alone (control oocytes) or 50 nl of 0.6 μg μl^−1 RNA were injected under stereomicroscopic control. Injected oocytes were incubated for 46–72 h at 18 °C with twice-daily buffer changes before usage in experiments.
Drug uptake assays were performed as described previously[21],[22],[24],[34]. […] The direction of radio-labeled drug transport is here from the mostly acidic extracellular solution (pH 4.5 or 6.0, as indicated) into the oocyte cytosol (pH ∼ 7.2), which corresponds to the efflux of drug from the acidic digestive vacuole (pH 5.2) into the parasite cytoplasm (pH 7.2). The topology of PfCRT in the oolemma is such that both the N- and C-terminus face the extracellular milieu[3],[22]. In the parasite, the N- and C-terminus face the lumen of the digestive vacuole. […] For determination of the amount of drug uptake for each oocyte, the reaction medium was removed and the oocytes were washed three times with 2 ml of ice-cold ND96 buffer. Each oocyte was individually transferred to a scintillation vial containing 5% sodium dodecyl sulfate (200 μl) for lysis. […] Oocytes that were injected with water instead of RNA were analyzed in parallel, representing the uptake of a drug by diffusion and/or endogenous permeation pathways. The resulting value represents the “background“ level of drug accumulation in oocytes (in-depth discussion in[22]). The specific PfCRT-mediated uptake was determined by subtracting the corresponding background value measured in water-injected oocytes from that of PfCRT-expressing oocytes. In all cases, at least three separate experiments were performed on oocytes from different frogs (biological replicate), and for each condition in an experiment, measurements were made from 10 oocytes per treatment. For pH 5.5, 6.0, and 6.5, ND96 was buffered with 5 mM MES/Tris base. For pH 4.5, 5 mM Homo-Pipes was used as a buffer and 5 mM HEPES for uptake at pH 7.0.

The next data set concerns PfCRT variant E207A. In words: Drug uptake assay, oocytes expressing E207A. The format is cell-based, Plasmodium falciparum. Particulars: for E207A transport activity pH 4.5 / E207A transport activity pH 6.0: 50 µM external drug, 1 h. On the procedure:
Site-directed mutagenesis of PfCRT^Dd2 was performed as described using the megaprimer method with overlap extension[21],[54]. The primer pairs used are listed in Supplementary Table 6. Please note that a codon-optimized and oocyte-adapted version of PfCRT^Dd2 was used[22] (Supplementary Fig. 16). The resulting DNA fragment was cloned into the SP64T expression vector and verified by sequencing.
as §1
Drug uptake assays were performed as described previously[21],[22],[24],[34]. […] The direction of radio-labeled drug transport is here from the mostly acidic extracellular solution (pH 4.5 or 6.0, as indicated) into the oocyte cytosol (pH ∼ 7.2), which corresponds to the efflux of drug from the acidic digestive vacuole (pH 5.2) into the parasite cytoplasm (pH 7.2). The topology of PfCRT in the oolemma is such that both the N- and C-terminus face the extracellular milieu[3],[22]. In the parasite, the N- and C-terminus face the lumen of the digestive vacuole. […] For determination of the amount of drug uptake for each oocyte, the reaction medium was removed and the oocytes were washed three times with 2 ml of ice-cold ND96 buffer. Each oocyte was individually transferred to a scintillation vial containing 5% sodium dodecyl sulfate (200 μl) for lysis. […] Oocytes that were injected with water instead of RNA were analyzed in parallel, representing the uptake of a drug by diffusion and/or endogenous permeation pathways. The resulting value represents the “background“ level of drug accumulation in oocytes (in-depth discussion in[22]). The specific PfCRT-mediated uptake was determined by subtracting the corresponding background value measured in water-injected oocytes from that of PfCRT-expressing oocytes. In all cases, at least three separate experiments were performed on oocytes from different frogs (biological replicate), and for each condition in an experiment, measurements were made from 10 oocytes per treatment. For pH 5.5, 6.0, and 6.5, ND96 was buffered with 5 mM MES/Tris base.

The test system of data set [1] is CCN(CC)CCCC(C)Nc1ccnc2cc(Cl)ccc12. The data set is described as follows: Drug uptake assay, X. laevis oocytes expressing PfCRT^Dd2. The following applies: 18.0 °C. The format is cell-based, Plasmodium falciparum.
Method: Oocytes were obtained as described previously[24]. Briefly, adult (>2 years old) female X. laevis frogs (NASCO) were anesthetized in a cooled solution of ethyl 3-amino benzoate methanesulfonate (0.1%, w/v), followed by a surgical removal of parts of the ovary. The ovary lobes were carefully dissected and small pieces of oocytes were incubated in Ca^2+-free ND96 buffer (96 mM NaCl, 2 mM KCl, 1 mM MgCl2 buffered with 5 mM HEPES/NaOH, pH 7.5) supplemented with collagenase D (0.1%, w/v; Roche), BSA (0.5%, w/v), and 9 mm Na2HPO4 at 18 °C for 14-16 h while gentle shaking. After incubation, the oocytes were carefully washed several times with ND96 buffer (96 mM NaCl, 2 mM KCl, 1.8 mM CaCl2, 1 mM MgCl2 buffered with 5 mM HEPES/NaOH, pH 7.5) supplemented with 100 mg l^−1 gentamycin). Defolliculated and healthy-looking stage V-VI oocytes were manually selected for RNA microinjection. […]
Drug uptake assays were performed as described previously[21],[22],[24],[34]. […] Oocytes that were injected with water instead of RNA were analyzed in parallel, representing the uptake of a drug by diffusion and/or endogenous permeation pathways. […] The specific PfCRT-mediated uptake was determined by subtracting the corresponding background value measured in water-injected oocytes from that of PfCRT-expressing oocytes. […]
The mark [2] stands for this setting: CQ transport in the presence of verapamil, independent samples.

Several values for one entry are separate records, joined by “and”; a condition that tells them apart may be missing. Identical values can stand only once.

PfCRT^Dd2, sequence (Q9N623 whole entry A220S/I356T/K76T/M74I/N326S/N75E/Q271E/R371I): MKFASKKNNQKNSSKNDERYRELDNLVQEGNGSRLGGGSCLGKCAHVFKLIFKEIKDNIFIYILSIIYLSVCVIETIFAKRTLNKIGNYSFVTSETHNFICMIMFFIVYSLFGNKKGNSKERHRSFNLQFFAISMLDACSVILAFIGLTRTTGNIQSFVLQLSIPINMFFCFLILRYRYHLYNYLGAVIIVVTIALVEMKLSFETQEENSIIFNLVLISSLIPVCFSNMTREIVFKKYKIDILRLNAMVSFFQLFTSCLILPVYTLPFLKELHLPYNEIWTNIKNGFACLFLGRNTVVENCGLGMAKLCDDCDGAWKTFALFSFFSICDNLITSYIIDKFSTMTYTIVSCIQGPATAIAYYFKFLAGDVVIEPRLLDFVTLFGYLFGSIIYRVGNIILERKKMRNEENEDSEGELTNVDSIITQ

Consider `NC12CC3CC(CC(C3)C1)C2` [AMA, amantadine], for which the “PfCRTDd2 transport activity pH 6.0” value on PfCRT^Dd2 is 3.96 pmol oocyte-1 h-1 and 5.23 pmol oocyte-1 h-1 and 3.48 pmol oocyte-1 h-1.

For `Clc1ccc2c(N3CCN(CCCN4CCN(c5ccnc6cc(Cl)ccc56)CC4)CC3)ccnc2c1` [PPQ, piperaquine], the “PfCRTDd2 transport activity pH 6.0” value on PfCRT^Dd2 was 28.14 pmol oocyte-1 h-1 and 21.87 pmol oocyte-1 h-1 and 30.01 pmol oocyte-1 h-1 and 33.33 pmol oocyte-1 h-1. Also, in the data set with PfCRT variant E207A (independent samples), the “E207A transport activity pH 4.5” value was 9.66 pmol oocyte-1 h-1 and 9.12 pmol oocyte-1 h-1 and 9.57 pmol oocyte-1 h-1 and 5.62 pmol oocyte-1 h-1; the “E207A transport activity pH 6.0” value was 8.93 pmol oocyte-1 h-1 and 12.01 pmol oocyte-1 h-1 and 12.48 pmol oocyte-1 h-1 and 12.86 pmol oocyte-1 h-1.

As for `C=C[C@H]1C[N@@]2CC[C@H]1C[C@@H]2[C@@H](O)c1ccnc2ccc(OC)cc12` [QD, quinidine], on PfCRT^Dd2, the “PfCRTDd2 transport activity pH 6.0” value is 4.23 pmol oocyte-1 h-1 and 3.26 pmol oocyte-1 h-1 and 4.00 pmol oocyte-1 h-1 and 4.74 pmol oocyte-1 h-1 and 4.12 pmol oocyte-1 h-1 and 4.59 pmol oocyte-1 h-1. Further, in the data set on PfCRT variant E207A (independent samples), the “E207A transport activity pH 4.5” value was 1.55 pmol oocyte-1 h-1 and 1.47 pmol oocyte-1 h-1 and 1.04 pmol oocyte-1 h-1 and 1.61 pmol oocyte-1 h-1; the “E207A transport activity pH 6.0” value is 2.30 pmol oocyte-1 h-1 and 2.18 pmol oocyte-1 h-1 and 1.61 pmol oocyte-1 h-1 and 1.77 pmol oocyte-1 h-1 and 2.20 pmol oocyte-1 h-1.

As to `C=C[C@H]1C[N@@]2CC[C@H]1C[C@H]2[C@H](O)c1ccnc2ccc(OC)cc12` [QN, quinine], the “PfCRTDd2 transport activity pH 6.0” value at PfCRT^Dd2 was 6.11 pmol oocyte-1 h-1 and 5.59 pmol oocyte-1 h-1 and 5.35 pmol oocyte-1 h-1 and 4.57 pmol oocyte-1 h-1. For the same molecule, in the data set with PfCRT variant E207A (independent samples), the “E207A transport activity pH 4.5” value was 1.81 pmol oocyte-1 h-1 and 1.79 pmol oocyte-1 h-1 and 2.22 pmol oocyte-1 h-1 and 1.30 pmol oocyte-1 h-1 and 1.76 pmol oocyte-1 h-1; the “E207A transport activity pH 6.0” value was 2.22 pmol oocyte-1 h-1 and 1.72 pmol oocyte-1 h-1 and 2.41 pmol oocyte-1 h-1 and 2.60 pmol oocyte-1 h-1.

Consider `CC[C@]1(O)C[C@@H]2CN(CCc3c([nH]c4ccccc34)[C@@](C(=O)OC)(c3cc4c(cc3OC)N(C)[C@H]3[C@@](O)(C(=O)OC)[C@H](OC(C)=O)[C@]5(CC)C=CCN6CC[C@]43[C@@H]65)C2)C1` [VNB, vinblastine], for which, at PfCRT^Dd2, the “PfCRTDd2 transport activity pH 6.0” value was “n.u”. Further, the “transport of the drug by PfCRT^Dd2” value on PfCRT^Dd2 (pH 6.0, in words) was “Neither PfCRT^Dd2 nor E207A acted on”. For the same molecule, the “E207A transport activity pH 6.0” value with PfCRT variant E207A (independent samples) is recorded as “n.u”. Besides, in the data set with PfCRT variant E207A (pH 6.0, in words), the “transport of the drug by E207A” value is “Neither PfCRT^Dd2 nor E207A acted on”.

Turning to `CC[C@]1(O)C[C@H]2CN(CCc3c([nH]c4ccccc34)[C@@](C(=O)OC)(c3cc4c(cc3OC)N(C=O)[C@H]3[C@@](O)(C(=O)OC)[C@H](OC(C)=O)[C@]5(CC)C=CCN6CC[C@]43[C@@H]65)C2)C1` [VNC, vincristine], the “PfCRTDd2 transport activity pH 6.0” value at PfCRT^Dd2 is listed as “n.u”. The “transport of the drug by PfCRT^Dd2” value on PfCRT^Dd2 (pH 6.0, in words) is “Neither PfCRT^Dd2 nor E207A acted on”. The “E207A transport activity pH 6.0” value in the data set with PfCRT variant E207A (independent samples) is “n.u”. Moreover, in the data set on PfCRT variant E207A (pH 6.0, in words), the “transport of the drug by E207A” value is “Neither PfCRT^Dd2 nor E207A acted on”.

As to `COc1ccc(CCN(C)CCCC(C#N)(c2ccc(OC)c(OC)c2)C(C)C)cc1OC` (stereo not drawn) [VP, verapamil], the “PfCRTDd2 CQ + VP transport activity pH 6.0” value at PfCRT^Dd2 (setting [2]) is 1.45 pmol oocyte-1 h-1 and 1.56 pmol oocyte-1 h-1 and 1.71 pmol oocyte-1 h-1 and 1.84 pmol oocyte-1 h-1. Further, the “effect on CQ transport by PfCRT^Dd2” value on PfCRT^Dd2 (pH 6.0, in words) is “blocked CQ transport”. The “E207A CQ + VP transport activity pH 6.0” value in the data set on PfCRT variant E207A (setting [2]) was 0.66 pmol oocyte-1 h-1 and 0.74 pmol oocyte-1 h-1 and 0.45 pmol oocyte-1 h-1. In addition, the “effect on CQ transport by E207A” value with PfCRT variant E207A (pH 6.0, in words) was “blocked CQ transport”.

The Km is the concentration of substrate that gives half-maximal velocity. Regarding “PfCRT^Dd2 (Plasmodium falciparum; A220S/I356T/K76T/M74I/N326S/N75E/Q271E/R371I)”, the Km was determined as 200 ± 60 µM in data set [1] (other: PfCRT^Dd2, pH 4.5, pH 4.5) and 270 ± 50 µM in data set [1] (other: PfCRT^Dd2, pH 6.0, pH 6.0).
